In patent EP0538469A1, “SULFONANILIDE DERIVATIVE AND MEDICINE” (NIPPON SHINYAKU COMPANY, LIMITED, priority 1990, dated 1991):
Where two headings read alike, the source gives them in different places. Marks after values point to notes of the source that are not given here.

How the values were obtained:
male rabbits [1] = assay: Action to intra urethral pressure and blood pressure, intravenous administration; format: in vivo
Protocol: (§1) The experiment was conducted using male rabbits of body weight of 1.4-3.1 kg under fasted condition. The animals were fixed at backs under uretrane(1.2g/kg s.c.) anesthesia, abdomen was subjected to a midline incision and bladder was exposed. In order to prevent the urine stored in the bladder on the intra urethral pressure, the urine in the bladder was compulsorily discharged out of the body. After that, a catheter was inserted into both ureters and the urine discharged from kidney was introduced outside.
(§2) The intra urethral pressure(IUP) at the urethra tract of about 0.5-1 cm distance from the neck of the bladder was measured using a microtip transducer transducer equipped with a baloon (filled with physiological saline solution) at the top end. Further, polyethylene tube was inserted into femoral artery to measure the blood pressure (BP).
The drug to be tested was injected into the vein of ear every fifteen minutes and the maximum responses of the increasing action of intra urethral pressure tract and of the increasing action of blood pressure were measured at each dose.

rats (SD strain, male) = assay: Acute toxicity, oral, rats; format: in vivo; details: observed two weeks
Protocol: (§3) Numbers of mice (ddY-strain, male, 6-8 weeks age) and rats (SD strain, male, 6-7 weeks age) in each group were 4 and 6, respectively.
(§4) The drug to be tested was orally administered at the dose of 10 ml/kg using an oral probe to the animals which were fasted since one day before (for 16-18 hours). After giving the drug, the animals were returned to the state where both feed and water were available and the general symptom and the dead cases, if any, were checked for two weeks. The drug was suspended in physiological saline solution containing 0.5% of methylcellulose (0.5% MC) and the suspension was given to the animals by oral route.

[2] = Acute toxicity, oral, rats; format: in vivo; details: rat, in vivo, SD rats, read-out: Rats LD₅₀
Protocol: as §3, §4

femoral artery = assay: Contraction of isolated femoral artery (Magnus vessel, cumulative concentration/response curves); format: cell-based, rabbits; details: Oryctolagus cuniculus
Protocol: (§5) The experiment was conducted using female rabbits of 2 to 3.5 kg body weight.
(§6) The animals were killed by draining the blood out under anesthetizing with pentobarbital (30 mg/kg, by intravenous injection) and smooth muscle of urethra and femoral artery were excised. Each of the excised samples was placed in a Magnus vessel filled with a modified Krebs solution (at 37°C; under mixed gas) and both smooth muscle of urethra and femoral artery were suspended with 1 g load.
(§7) The drug to be tested was accumulated to contract the samples whereby the concentration/response curves were obtained wherefrom ED₅₀ (M) and pD₂ were calculated and the selectivity to urethra was determined.

male rabbits [3] = assay: Action to intra urethral pressure and blood pressure, administration to duodenum; format: in vivo
Protocol: as §1, §2
Abdomen right above stomach was subjected to a midline incision and, after that, the drug to be tested suspended in 0.5% methyl cellulose (0.5% MC) was administered at the dose of 0.5ml/kg to the duodenum. […] The above administration to duodenum corresponded to oral administration as the administration into digestive organ in anethetized animals.

smooth muscle of urethra = assay: Contraction of isolated smooth muscle of urethra (Magnus vessel, cumulative concentration/response curves); format: cell-based, rabbits; details: for EC50: Oryctolagus cuniculus
Protocol: as §5, §6, §7

α₁-adrenoceptors = assay: α₁-Adrenoceptor binding assay with [³H]-prazosin, brain membrane; design: species or system Rats
Protocol: Preparation of the receptor membrane was conducted as follows. Rats were decapitated, brain except cerebellum was excised, weighed, 40 times as much 50mM Tris-hydrochloric acid buffer (pH: 7.4) was added and the mixture was homogenized with a Polytron homogenizer and centrifuged for 20 minutes at 39,000 x g. Buffer solution was added to the precipitate and the resulting suspension was again centrifuged for 20 minutes. Then the precipitate was suspended in 40 volumes of Tris-hydrochloric acid buffer to prepare a receptor sample. The above operations were all conducted at 4°C.
α ₁-Adrenoceptor binding assay was conducted as a radioactive ligand using a [³H]-prazosin.
First, the receptor sample prepared as above was incubated in 50 mM Tris-hydrochloric acid buffer (pH 7.4) with [³H]-prazosin (0.2nM) at 25°C for 30 minutes. […] The mixture was allowed to stand at room temperature for not shorter than about 10 hours and the radioactivity was measured with a liquid scintillation counter to give a total binding.
The same reaction as above was conducted in the presence of 1 µM of prazosin as well and the resulting radioactivity was defined as nonspecific binding. […]
The inhibition activity of the test drug to the [³H]-prazosin binding was calculated by measuring the amount of the specific [ ³H] -prazosin binding in the presence of various concentrations of the drug. […]

mice (ddY-strain, male) = assay: Acute toxicity, oral, mice; format: in vivo; details: observed two weeks
Protocol: as §3, §4

[4] = 0.1 mg/kg i.d., 10 min after administration
[5] = 0.1 mg/kg i.d., 20 min after administration
[6] = 0.1 mg/kg i.d., 30 min after administration
[7] = 0.1 mg/kg i.d., 60 min after administration
[8] = 0.1 mg/kg i.d., 90 min after administration
[9] = 0.1 mg/kg i.d., 120 min after administration
[10] = 0.1 mg/kg i.d., 180 min after administration
[11] = 0.3 mg/kg i.d., 10 min after administration
[12] = 0.3 mg/kg i.d., 20 min after administration
[13] = 0.3 mg/kg i.d., 30 min after administration
[14] = 0.3 mg/kg i.d., 60 min after administration
[15] = 0.3 mg/kg i.d., 90 min after administration
[16] = 0.3 mg/kg i.d., 120 min after administration
[17] = 0.3 mg/kg i.d., 180 min after administration

CS(=O)(=O)Nc1ccc(F)c([C@@H](O)CN)c1.Cl [(49B), (R)-(-)-3'-(2-Amino-1-hydroxyethyl)-4'-fluoromethanesulfonanilide hydrochloride]
Selectivity (B/A) (male rabbits [1]; BP(ED30%↑) / IUP(ED150%↑), i.v.): 5.3 | ED (30%) (male rabbits [1]; Oryctolagus cuniculus, iv, read-out: BP(B) [BP(ED30%↑)]): 0.048 mg/kg | Rats Dead/ Total (rats (SD strain, male); 500 mg/kg): 0 / 6 | Rats Dead/ Total (rats (SD strain, male); 1000 mg/kg): 0 / 6 | LD50 at 336 h [2]: > 1000 mg/kg | EC50 (femoral artery; read-out: ED₅₀ Femoral Artery(B)): 3.21 µM | EC50 (femoral artery; read-out: pD₂ Femoral Artery(B)): 3.24 µM | Change(%) BP (male rabbits [3]; [4]): 2.7% | Change(%) BP (male rabbits [3]; [5]): 1.9% | Change(%) BP (male rabbits [3]; [6]): 3.3% | Change(%) BP (male rabbits [3]; [7]): 0.5% | Change(%) BP (male rabbits [3]; [8]): -5.0% | Change(%) BP (male rabbits [3]; [9]): -9.8% | Change(%) BP (male rabbits [3]; [10]): -14.9% | Change(%) BP (male rabbits [3]; [11]): 2.8% | Change(%) BP (male rabbits [3]; [12]): 4.0% | Change(%) BP (male rabbits [3]; [13]): 4.7% | Change(%) BP (male rabbits [3]; [14]): 7.9** % | Change(%) BP (male rabbits [3]; [15]): 6.5** % | Change(%) BP (male rabbits [3]; [16]): 3.3* % | Change(%) BP (male rabbits [3]; [17]): -10.0% | Change(%) IUP (male rabbits [3]; [4]): 10.5% | Change(%) IUP (male rabbits [3]; [5]): 11.0% | Change(%) IUP (male rabbits [3]; [6]): 20.7% | Change(%) IUP (male rabbits [3]; [7]): 29.4% | Change(%) IUP (male rabbits [3]; [8]): 28.9% | Change(%) IUP (male rabbits [3]; [9]): 30.3% | Change(%) IUP (male rabbits [3]; [10]): 24.1% | Change(%) IUP (male rabbits [3]; [11]): 21.5% | Change(%) IUP (male rabbits [3]; [12]): 44.2** % | Change(%) IUP (male rabbits [3]; [13]): 65.2* % | Change(%) IUP (male rabbits [3]; [14]): 84.1** % | Change(%) IUP (male rabbits [3]; [15]): 114.9* % | Change(%) IUP (male rabbits [3]; [16]): 101.5** % | Change(%) IUP (male rabbits [3]; [17]): 95.7** % | dose resulting in intraurethral pressure increasing action of the same grade as known amidephrine (male rabbits [3]; administration to digestive organ, relative to amidephrine dose): about one-tenth | Selectivity (B/A) (smooth muscle of urethra; ED₅₀ femoral artery / ED₅₀ urethra): 0.73 | EC50 (smooth muscle of urethra; read-out: ED₅₀ Urethra(A)): 4.41 µM | EC50 (smooth muscle of urethra; read-out: pD₂ Urethra(A)): 4.37 µM | inhibiting action to binding of [³H]-prazosin, stronger than amidephrine (α₁-adrenoceptors; relative to amidephrine): about twice | inhibiting action to binding of [³H]-prazosin, stronger than phenylephrine (α₁-adrenoceptors; relative to phenylephrine): about five times | Mice Dead/ Total (mice (ddY-strain, male); 1000 mg/kg): 0 / 4 | Mice Dead/ Total (mice (ddY-strain, male); 3000 mg/kg): 0 / 4
